# Data published in patent US4937237A, “Phosphinic acid substituted aromatic steroids as inhibitors of steroid 5-60 -reductase” (SmithKline Beckman Corporation, priority 1988, dated 1990).
# pKi: −log10 of the molar value. Read-outs that look alike come from different tables or passages of the source.
# Columns and labels:
# [1] = target: T1, human steroid 5-α-reductase (Homo sapiens, UniProt P31213); assay: Potency in inhibiting human steroid 5-α-reductase from hyperplastic human prostates ([14C]-testosterone conversion, Dixon plot); format: biochemical
# T1 construct: Frozen human prostates were thawed and minced into small pieces; from tissue; host or cells: hyperplastic human prostate, 140,000×g particulate fraction
# T1 sequence (P31213 1-254): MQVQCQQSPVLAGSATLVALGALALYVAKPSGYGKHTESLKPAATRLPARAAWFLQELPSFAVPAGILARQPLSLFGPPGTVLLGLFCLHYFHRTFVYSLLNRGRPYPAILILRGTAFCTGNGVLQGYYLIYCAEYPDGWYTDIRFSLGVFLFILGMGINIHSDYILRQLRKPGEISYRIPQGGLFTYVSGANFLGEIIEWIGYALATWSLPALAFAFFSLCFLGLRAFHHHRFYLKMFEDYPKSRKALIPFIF
# Procedure: A compound of the invention, 17β-(N,N-diisopropylcarboxamide)-estr-1,3,5(10)-triene-3-phosphinic acid, was tested for potency in inhibiting human steroid 5-α-reductase using tissue from hyperplastic human prostates. In determining potency in inhibiting the human enzyme, the following procedure was employed:
# Frozen human prostates were thawed and minced into small pieces (5 mm^3). The tissue was homogenized in 3 to 5 volumes of 20 mM potassium phosphate buffer, pH 6.5, containing 0.33M sucrose, 1 mM dithiothreitol, and 50 μM NADPH with a Brinkmann Polytron (Sybron Corporation, Westbury, N.Y.). The solution was subjected to sonication for 3 to 5 minutes with a Sonifier (Branson Sonic Power Co.) followed by hand homogenization in a glass-to-glass Dounce homogenizer (Kontes Glass Company, Vineland, N.J.). […]
# A constant amount of [^14 C]-testosterone (52 to 55 mCi/mmol, New England Nuclear, Boston, MA) in ethanol and varying amounts of the potential inhibitor in ethanol were deposited in test tubes and concentrated to dryness in a SAVANT Speed Vac. […] The radiochemical content in the bands of the substrate and the products was determined with a BIOSCAN Imaging Scanner (Bioscan, Inc., Washington, D.C.). The percent of recovered radiolabel converted to product was calculated, from which enzyme activity was determined. […]
# 5-α-Reductase = details: cited from earlier work; for pKi / Reversibility of inhibition (with Ki): Table I; for Type of inhibition of steroid 5-α-reductase, in words: literature
# [2] = test system: human steroid 5-α-reductase; details: substrate (testosterone), separate experiment
smiles,measurement,setting,value
"CC(C)N(C(=O)[C@H]1CC[C@H]2[C@@H]3CCc4cc([PH](=O)O)ccc4[C@H]3CC[C@]12C)C(C)C [17β-(N,N-Diisopropylcarboxamide)-estr-1,3,5(10)-triene-3-phosphinic Acid]",pKi,[1],7.89
same,"Potency as inhibitor of human steroid 5-α-reductase, in words",[1]; concluded from low Ki,potent inhibitor
C[C@]12CC[C@H]3[C@@H](CCC4=CC(=O)CC[C@@]43C)[C@@H]1CC[C@@H]2C(=O)O [(1)],pKi,5-α-Reductase; literature references,5.96
same,Reversibility of inhibition (with Ki),5-α-Reductase; literature references,Reversible
CC(=O)C1CCC2C3CC=C=CC(=O)CCC(=O)C3CCC12C (stereo not drawn) [(2)],pKi,5-α-Reductase; literature references,6.00
same,Reversibility of inhibition (with Ki),5-α-Reductase; literature references,Irreversible
CC(CO)[C@H]1CC[C@H]2[C@@H]3CC[C@H]4C(=[N+]=[N-])C(=O)CC[C@]4(C)[C@H]3CC[C@]12C (stereo partly drawn) [(3)],pKi,"5-α-Reductase; literature reference, unit inferred",7.46
same,Reversibility of inhibition (with Ki),5-α-Reductase; literature references,Irreversible
same,"Type of inhibition of steroid 5-α-reductase, in words",5-α-Reductase,"potent, time-dependent inhibitor"
CCN(CC)C(=O)[C@H]1CC[C@H]2[C@@H]3CC[C@H]4N(C)C(=O)CC[C@]4(C)[C@H]3CC[C@]12C [(4)],pKi,5-α-Reductase; literature references,8.30
same,Reversibility of inhibition (with Ki),5-α-Reductase; literature references,Reversible
C=C1C[C@@H]2[C@H](CC[C@@]3(C)[C@H]2CC[C@]3(OC(C)=O)C(C)=O)[C@@]2(C)CCC(=O)C=C12 [(5)],pKi,5-α-Reductase; literature references,5.90
same,Reversibility of inhibition (with Ki),5-α-Reductase; literature references,Irreversible
same,"Type of inhibition of steroid 5-α-reductase, in words",5-α-Reductase,time-dependent inactivator
C[C@]12CC[C@H]3[C@@H](CCC4=CC(=O)CC[C@@]43C)[C@@H]1CC[C@@H]2O [testosterone],Km,[2],4.5 µM
